Laboratory results: PubChem BioAssay AID2060627 (Molecular Pharmacology Branch, DTP, NCI, 2025)

Tested on: 156681-154-R-J1-PDC complex spheroid viability
Assay: Anticancer human tumor 156681-154-R-J1-PDC patient-derived melanoma cell line growth inhibition [CLK]
Conditions: for IC50: curve of first compound; for viability, T/C: stronger effect = lower value
Procedure, shortened: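 Multi-cell-type spheroids combined patient-derived tumor cells with HUVEC endothelial cells and human mesenchymal stem cells. Paired agents were dosed in half-log steps down from about clinical Cmax, or from 10 microM where Cmax was unknown.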

[1] = second compound 0.0316 µM, first compound 0.0316 µM
[2] = second compound 0.0316 µM, first compound 0.1 µM
[3] = second compound 0.0316 µM, first compound 0.316 µM
[4] = second compound 0.0316 µM, first compound 1 µM
[5] = second compound 0.0316 µM, first compound 3.16 µM
[6] = second compound 0.0316 µM, first compound 10 µM
[7] = second compound 0.1 µM, first compound 0.0316 µM
[8] = second compound 0.1 µM, first compound 0.1 µM
[9] = second compound 0.1 µM, first compound 0.316 µM
[10] = second compound 0.1 µM, first compound 1 µM
[11] = second compound 0.1 µM, first compound 3.16 µM
[12] = second compound 0.1 µM, first compound 10 µM
[13] = second compound 0.316 µM, first compound 0.0316 µM
[14] = second compound 0.316 µM, first compound 0.1 µM
[15] = second compound 0.316 µM, first compound 0.316 µM
[16] = second compound 0.316 µM, first compound 1 µM
[17] = second compound 0.316 µM, first compound 3.16 µM
[18] = second compound 0.316 µM, first compound 10 µM
[19] = second compound 1 µM, first compound 0.0316 µM
[20] = second compound 1 µM, first compound 0.1 µM
[21] = second compound 1 µM, first compound 0.316 µM
[22] = second compound 1 µM, first compound 1 µM
[23] = second compound 1 µM, first compound 3.16 µM
[24] = second compound 1 µM, first compound 10 µM
[25] = second compound 3.16 µM, first compound 0.0316 µM
[26] = second compound 3.16 µM, first compound 0.1 µM
[27] = second compound 3.16 µM, first compound 0.316 µM
[28] = second compound 3.16 µM, first compound 1 µM
[29] = second compound 3.16 µM, first compound 3.16 µM
[30] = second compound 3.16 µM, first compound 10 µM
[31] = second compound 10 µM, first compound 0.0316 µM
[32] = second compound 10 µM, first compound 0.1 µM
[33] = second compound 10 µM, first compound 0.316 µM
[34] = second compound 10 µM, first compound 1 µM
[35] = second compound 10 µM, first compound 3.16 µM
[36] = second compound 10 µM, first compound 10 µM
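Further: spheroids exposed to the agents for seven days.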
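Wherever viability, T/C is given: 100% = DMSO vehicle control viability.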

## CC(=O)O[C@H]1C(=O)[C@@]2(C)[C@H]([C@H](OC(=O)c3ccccc3)[C@]3(O)C[C@H](OC(=O)[C@H](O)[C@@H](NC(=O)c4ccccc4)c4ccccc4)C(C)=C1C3(C)C)[C@]1(OC(C)=O)CO[C@@H]1C[C@@H]2O + CN1CCN(c2cc(C(=O)Nc3cc4cc(-c5cnn(C)c5)ccc4cn3)ccn2)CC1
Second compound 0.0316 µM
  IC50: < 31.6 nM
Second compound 0.1 µM
  IC50: < 31.6 nM
Second compound 0.316 µM
  IC50: < 31.6 nM
Second compound 1 µM
  IC50: < 31.6 nM
Second compound 3.16 µM
  IC50: < 31.6 nM
Second compound 10 µM
  IC50: < 31.6 nM
[1]
  viability, T/C: 19.4%
[2]
  viability, T/C: 13.1%
[3]
  viability, T/C: 18.9%
[4]
  viability, T/C: 16.5%
[5]
  viability, T/C: 23.6%
[6]
  viability, T/C: 28.9%
[7]
  viability, T/C: 17.6%
[8]
  viability, T/C: 14.6%
[9]
  viability, T/C: 15.4%
[10]
  viability, T/C: 12.5%
[11]
  viability, T/C: 16.3%
[12]
  viability, T/C: 24.3%
[13]
  viability, T/C: 15.1%
[14]
  viability, T/C: 21.1%
[15]
  viability, T/C: 13.8%
[16]
  viability, T/C: 13%
[17]
  viability, T/C: 14.8%
[18]
  viability, T/C: 16.8%
[19]
  viability, T/C: 0.09%
[20]
  viability, T/C: 0.13%
[21]
  viability, T/C: 0.13%
[22]
  viability, T/C: 0.34%
[23]
  viability, T/C: 0.12%
[24]
  viability, T/C: 0.13%
[25]
  viability, T/C: 0.09%
[26]
  viability, T/C: 0.74%
[27]
  viability, T/C: 0.35%
[28]
  viability, T/C: 0.08%
[29]
  viability, T/C: 0.23%
[30]
  viability, T/C: 0.22%
[31]
  viability, T/C: 0.09%
[32]
  viability, T/C: 0.7%
[33]
  viability, T/C: 0.46%
[34]
  viability, T/C: 0.52%
[35]
  viability, T/C: 0.61%
[36]
  viability, T/C: 0.3%

## CC(CO)NC(=O)c1cc(-c2ccc(Cl)cc2)nn(-c2cnn(C)c2)c1=O (centres undefined) + CN1CCN(c2cc(C(=O)Nc3cc4cc(-c5cnn(C)c5)ccc4cn3)ccn2)CC1
Second compound 0.0316 µM
  IC50: > 10000 nM
Second compound 0.1 µM
  IC50: > 10000 nM
Second compound 0.316 µM
  IC50: < 31.6 nM
Second compound 1 µM
  IC50: < 31.6 nM
Second compound 3.16 µM
  IC50: < 31.6 nM
Second compound 10 µM
  IC50: < 31.6 nM
[1]
  viability, T/C: 97.7%
[2]
  viability, T/C: 107%
[3]
  viability, T/C: 103%
[4]
  viability, T/C: 114%
[5]
  viability, T/C: 84.2%
[6]
  viability, T/C: 59.6%
[7]
  viability, T/C: 99.3%
[8]
  viability, T/C: 94.7%
[9]
  viability, T/C: 87.5%
[10]
  viability, T/C: 81.8%
[11]
  viability, T/C: 67%
[12]
  viability, T/C: 56%
[13]
  viability, T/C: 26.8%
[14]
  viability, T/C: 38.3%
[15]
  viability, T/C: 34.2%
[16]
  viability, T/C: 29.2%
[17]
  viability, T/C: 29.1%
[18]
  viability, T/C: 21.5%
[19]
  viability, T/C: 0.34%
[20]
  viability, T/C: 0.99%
[21]
  viability, T/C: 0.36%
[22]
  viability, T/C: 1.64%
[23]
  viability, T/C: 1.51%
[24]
  viability, T/C: 2.77%
[25]
  viability, T/C: 0.25%
[26]
  viability, T/C: 0.92%
[27]
  viability, T/C: 0.29%
[28]
  viability, T/C: 1.68%
[29]
  viability, T/C: 0.58%
[30]
  viability, T/C: 0.23%
[31]
  viability, T/C: 0.29%
[32]
  viability, T/C: 0.66%
[33]
  viability, T/C: 0.9%
[34]
  viability, T/C: 1.31%
[35]
  viability, T/C: 0.62%
[36]
  viability, T/C: 1.4%
